Bounds are passed on as bounds.

One test relates to Hep3B cells (hepatocellular carcinoma cell line). The test is described as follows: In vitro MTS cell viability assay (NCI-60 methodology), Hep3B. It is filed as cell-based. To be noted: Homo sapiens, 48 h, Table 1, MTS, 2 days drug incubation, 50% reduction vs time zero, read-out: Hep3B LC50. The method, then: The cell viability measurement is based on the NCI-60 screening methodology (Nat. Rev. Cancer 6, 813-823, 2006). Briefly, cells are inoculated into 96-well plates at the optimal plating density. After 24 h, one of the two plates for Hep3B cell line is processed to determine a time zero cell viability (Tz) by MTS assay (Promega). Compounds are added over a 2-fold serial dilution to provide a total five drug concentrations plus DMSO control. Plates are incubated for a further 2 days, then measured cell viability by MTS assay [control growth (C) and test growth in the presence of drug at the five concentration levels (Ti)]. The LC50 is calculated from [(Ti−Tz)/Tz]×100=−50, which is the drug concentration resulting in a 50% reduction at the end of the drug treatment as compared to that at the beginning.
The compounds prepared in Tables 1-10 were tested in three in vitro assays, and the results are shown in Tables 1-10 for Hep3B and Table 11 for SW480 and NCI-H460 shown below. Herein, Hep3B refers to hepatocellular carcinoma cell line, SW480 refers to colon adenocarcinoma cell line, and NCI-H460 refers to human lung cancer cell line.
Shown in following Tables 1 to 10 are the structures and in vitro activities of exemplary compounds of formula (I).
In general terms: Formazan colour is commonly taken as a measure of viable cells.
Turning to `Cn1ncc2c(NC(=O)c3ccc([N+](=O)[O-])s3)nc(-c3ccc(C(C)(C)C)cc3)nc21` [Compound 1-1, N-(6-(4-(tert-butyl)phenyl)-1-methyl-1H-pyrazolo[3,4-d]pyrimidin-4-yl)-5-nitrothiophene-2-carboxamide], the LC50 – broadly, the concentration lethal to half of the exposed cells or organisms – was found to be 1800 nM.
The same measure, in the same setting: in the case of `O=C(Nc1nc(-c2ccc(OC(F)(F)F)cc2)nc2c1cnn2CCN1CCOCC1)c1ccc([N+](=O)[O-])s1` [Compound 1-30, N-(1-(2-morpholinoethyl)-6-(4-(trifluoromethoxy)phenyl)-1H-pyrazolo[3,4-d]pyrimidin-4-yl)-5-nitrothiophene-2-carboxamide] it was 1700 nM; in that of `CN(C)CCn1ncc2c(NC(=O)c3ccc([N+](=O)[O-])s3)nc(-c3ccc(OC(F)(F)F)cc3)nc21` [Compound 1-31, N-(1-(2-(dimethylamino)ethyl)-6-(4-(trifluoromethoxy)phenyl)-1H-pyrazolo[3,4-d]pyrimidin-4-yl)-5-nitrothiophene-2-carboxamide], 1860 nM; in that of `Cn1ncc2c(NC(=O)c3ccc([N+](=O)[O-])s3)nc(-c3ccc(OC(C)(C)C)cc3)nc21` [Compound 1-7, N-(6-(4-(tert-butoxy)phenyl)-1-methyl-1H-pyrazolo[3,4-d]pyrimidin-4-yl)-5-nitrothiophene-2-carboxamide], 1510 nM.
Still for that read-out and setting: next, `O=C(Nc1nc(-c2ccc(OC(F)(F)F)cc2)nc2c1cnn2CCN1CCC(F)(F)C1)c1ccc([N+](=O)[O-])s1` [Compound 1-32, N-(1-(2-(3,3-difluoropyrrolidin-1-yl)ethyl)-6-(4-(trifluoromethoxy)phenyl)-1H-pyrazolo[3,4-d]pyrimidin-4-yl)-5-nitrothiophene-2-carboxamide]: 770 nM.

Staying with this test, now noted: Homo sapiens, 48 h, Table 5, MTS, 2 days drug incubation, 50% reduction vs time zero, read-out: Hep3B LC50.
Take `O=C(Nc1nc(OCCN2CCOCC2)nc2c1cnn2-c1ccccc1)c1ccc([N+](=O)[O-])s1` [Compound 5-12, N-(6-(2-morpholinoethoxy)-1-phenyl-1H-pyrazolo[3,4-d]pyrimidin-4-yl)-5-nitrothiophene-2-carboxamide]: the LC50 is greater than 3000 nM.
In the case of `Cc1ccc(-c2nc(NC(=O)c3ccc([N+](=O)[O-])s3)c3cnn(-c4ccccc4)c3n2)cn1` [Compound 5-34, N-(6-(6-methylpyridin-3-yl)-1-phenyl-1H-pyrazolo[3,4-d]pyrimidin-4-yl)-5-nitrothiophene-2-carboxamide], the LC50 turned out to be 850 nM.

The test is the same for the next values; noted with them: Homo sapiens, 48 h, Table 6, MTS, 2 days drug incubation, 50% reduction vs time zero, read-out: Hep3B LC50.
Consider `COC(=O)[C@@H]1CCCN1c1nc(NC(=O)c2ccc([N+](=O)[O-])s2)c2cnn(-c3cccc(Cl)c3)c2n1` [Compound 6-32, methyl (1-(3-chlorophenyl)-4-(5-nitrothiophene-2-carboxamido)-1H-pyrazolo[3,4-d]pyrimidin-6-yl)-L-prolinate], for which the LC50 was 560 nM.
On the same count and under the same terms, in the case of `COc1ccc(-n2ncc3c(NC(=O)c4ccc([N+](=O)[O-])s4)nc(-c4ccc(Cl)nc4)nc32)cc1` [Compound 6-21, N-(6-(6-chloropyridin-3-yl)-1-(4-methoxyphenyl)-1H-pyrazolo[3,4,d]pyrimidin-4-yl)-5-nitrothiophene-2-carboxamide] it was 120 nM.
Turning to `CC(C)(C)c1ccc(-n2ncc3c(NC(=O)c4ccc([N+](=O)[O-])s4)nc(N4CCCC4)nc32)cc1` [Compound 6-62, N-(1-(4-(tert-butyl)phenyl)-6-(pyrrolidin-1-yl)-1H-pyrazolo[3,4-d]pyrimidin-4-yl)-5-nitrothiophene-2-carboxamide], the LC50 came to 710 nM.
On to `Cc1ccccc1-n1ncc2c(NC(=O)c3ccc([N+](=O)[O-])s3)nc(-c3ccc(F)nc3)nc21` [Compound 6-2], for which the LC50 is greater than 3000 nM.
Same read-out and setting: next, `O=C(Nc1nc(N2CCC[C@H]2CO)nc2c1cnn2-c1cccc(Cl)c1)c1ccc([N+](=O)[O-])s1` [Compound 6-31, (S)—N-(1-(3-chlorophenyl)-6(2-(hydroxymethyl)pyrrolidin-1-yl)-1H-pyrazolo[3,4-d]pyrmidin-4-yl)-5-nitrothiophene-2-carboxamide]: greater than 1250 nM; `O=C(Nc1nc(-c2ccc(N3CCOCC3)nc2)nc2c1cnn2-c1ccc(F)cc1)c1ccc([N+](=O)[O-])s1` [Compound 6-141, N-(1-(4-fluorophenyl)-6-(6-morpholinopyridin-3-yl)-1H-pyrazolo[3,4-d]pyrimidin-4-yl)-5-nitrothiophene-2-carboxamide]: 420 nM; `CC1(C)CC=C(c2nc(NC(=O)c3ccc([N+](=O)[O-])s3)c3cnn(-c4ccc(F)cc4)c3n2)CC1` [Compound 6-144, N-(6-(4,4-dimethylcyclohex-1-en-1-yl)-1-(4-fluorophenyl)-1H-pyrazolo[3,4-d]pyrimidin-4-yl)-5-nitrothiophene-2-carboxamide]: 550 nM.
The same measure, in the same setting: next, `COc1ccc(-c2nc(NC(=O)c3ccc([N+](=O)[O-])s3)c3cnn(-c4ccc(C)cc4)c3n2)cn1` [Compound 6-6, N-(6-(6-methoxypyridin-3-yl)-1-(p-tolyl)-1H-pyrazolo[3,4-d]pyrimidin-4-yl)-5-nitrothiophene-2-carboxamide]: 400 nM; `CC(C)(C)c1ccc(-n2ncc3c(NC(=O)c4ccc([N+](=O)[O-])s4)nc(-c4ccccc4F)nc32)cc1` [Compound 6-79, N-(1-(4-(tert-butyl)phenyl)-6-(2-fluorophenyl)-1H-pyrazolo[3,4-d]pyrimidin-4-yl)-5-nitrothiophene-2-carboxamide]: 690 nM.

Staying with this test, now noted: Homo sapiens, 48 h, Table 7, MTS, 2 days drug incubation, 50% reduction vs time zero, read-out: Hep3B LC50.
`CCOCCOCCOc1ccc(-c2nc(NC(=O)c3ccc([N+](=O)[O-])s3)c3cnn(-c4ccc(C(F)(F)F)cn4)c3n2)cn1` [Compound 7-7, N-(6-(6-(2-(2-ethoxyethoxy)ethoxy)pyridin-3-yl)-1-(5-(trifluoromethyl)pyridin-2-yl)-1H-pyrazolo[3,4-d]pyrimidin-4-yl)-5-nitrothiophene-2-carboxamide]: the LC50 stood at 500 nM.
On to `O=C(Nc1nc(-c2ccc(Cl)cc2)nc2c1cnn2Cc1ccccc1)c1ccc([N+](=O)[O-])s1` [Compound 7-16, N-(1-benzyl-6-(4-chlorophenyl)-1H-pyrazolo[3,4-d]pyrimidin-4-yl)-5-nitrothiophene-2-carboxamide], for which the LC50 is greater than 1250 nM.
For `COc1ccc(-c2nc(NC(=O)c3ccc([N+](=O)[O-])s3)c3cnn(Cc4cccc(F)c4)c3n2)cn1` [Compound 7-18], the 50% lethal concentration (LC50) was greater than 1250 nM.

Staying with this test, now noted: Homo sapiens, 48 h, Table 8, MTS, 2 days drug incubation, 50% reduction vs time zero, read-out: Hep3B LC50.
Take `CCOC(=O)N1CCC(n2ncc3c(NC(=O)c4ccc([N+](=O)[O-])s4)nc(-c4ccc(F)nc4)nc32)C1` [Compound 8-5, ethyl (S)-3-(6-(6-fluoropyridin-3-yl)-4-(5-nitrothiophene-2-carboxamide)-1H-pyrazolo[3,4-d]pyrimidin-1-yl)pyrrolidine-1-carboxylate]: the LC50 was greater than 2000 nM.
On to `COC(=O)c1ccc(-c2nc(NC(=O)c3ccc([N+](=O)[O-])s3)c3cnn(C4CCCCCC4)c3n2)cc1` [Compound 8-12, methyl 4-(1-cycloheptyl-4-(5-nitrothiophene-2-carboxamido)-1H-pyrazolo[3,4-d]pyrimidin-6-yl)benzoate], for which the 50% lethal concentration (LC50) worked out at 470 nM.

The same test, now with this note: Homo sapiens, 48 h, Table 9, MTS, 2 days drug incubation, 50% reduction vs time zero, read-out: Hep3B LC50.
In the case of `CC(C)(C)C(=O)N1CCC(n2ncc3c(NC(=O)c4ccc([N+](=O)[O-])s4)nc(-c4ccc(F)nc4)nc32)CC1` [Compound 9-8, N-(6-(6-fluoropyridin-3-yl)-1-(1-pivaloylpiperidin-4-yl)-1H-pyrazolo[3,4,d]pyrimidin-4-yl)-5-nitrothiophene-2-carboxamide], the LC50 was found to be 1900 nM.

The same test, now with this note: Homo sapiens, 48 h, Table 10, MTS, 2 days drug incubation, 50% reduction vs time zero, read-out: Hep3B LC50.
`O=C(Nc1nc(-c2ccc(Cl)cc2F)nc2c1cnn2C1CCCCC1)c1ccc([N+](=O)[O-])s1` [Compound 10-45, N-(6-(4-chloro-2-fluorophenyl)-1-cyclohexyl-1H-pyrazolo[3,4-d]pyrimidin-4-yl)-5-nitrothiophene-2-carboxamide]: the LC50 amounted to 870 nM.
For `CCOc1ccc(-c2nc(NC(=O)c3ccc([N+](=O)[O-])s3)c3cnn(C4CCC(F)(F)CC4)c3n2)cc1` [Compound 10-59, N-(1-(4,4<fluorocyclohexyl)-4-(4-ethoxyphenyl)-1H-pyrazolo[3,4-d]pyrimidin-4-yl)-5-nitrothiophene-2-carboxamide], the LC50 came out at 1280 nM.
The same measure, in the same setting: next, `COc1ccc(-c2nc(NC(=O)c3ccc([N+](=O)[O-])s3)c3cnn(C4CCCCC4)c3n2)cn1` [Compound 10-21, N-(1-cyclohexyl-6-(6-methoxypyridin-3-yl)-1H-pyrazolo[3,4-d]pyrimidin-4-yl)-5-nitrothiophene-2-carboxamide]: 1120 nM; `Cc1ccc(-c2nc(NC(=O)c3ccc([N+](=O)[O-])s3)c3cnn(C4CCCCC4)c3n2)cn1` [Compound 10-19]: 1130 nM; `CC1(C)CCC(n2ncc3c(NC(=O)c4ccc([N+](=O)[O-])s4)nc(-c4ccc(F)cc4)nc32)CC1` [Compound 10-61]: 550 nM.
`COCCOc1ccc(-c2nc(NC(=O)c3ccc([N+](=O)[O-])s3)c3cnn(C4CCCCC4)c3n2)cc1` [Compound 10-50, N-(1-cyclohexyl-6-(4-(2-methoxyethoxy)phenyl)-1H-pyrazolo[3,4-d]pyrimidin-4-yl)-5-nitrothiophene-2-carboxamide]: the LC50 was 2640 nM.

The record behind these values is patent US20240150356A1, “Pyrimidine amide compounds and use thereof” (ALPHALA CO., LTD., priority 2019, published 2024).
